# US20210244720A1, “Therapeutic Tyrosine Kinase Inhibitors for Relapsing Multiple Sclerosis (RMS)” (Genzyme Corporation, priority 2020, published 2021)
# Test system: participants with relapsing multiple sclerosis (RMS)
# Experiment: Phase 2b study in RMS: safety and tolerability (adverse events, laboratory tests, ECG, vital signs)
# [1] = 5 mg, 12 weeks treatment, n = 33
# [2] = 5 mg, BTK inhibitor treatment period, safety population, N = 32
# [3] = 5 mg, BTK inhibitor treatment period, safety population, N = 33
# [4] = 15 mg, 12 weeks treatment, n = 32
# [5] = 15 mg, BTK inhibitor treatment period, safety population, N = 32
# [6] = 30 mg, 12 weeks treatment, n = 33
# [7] = 30 mg, BTK inhibitor treatment period, safety population, N = 33
# [8] = 60 mg, 12 weeks treatment, n = 32
smiles,measurement,setting,value
"C=CC(=O)N1CCC[C@@H](n2c(=O)n(-c3ccc(Oc4ccccc4)cc3)c3c(N)nccc32)C1 [the BTK inhibitor, (R)-1-(1-acryloylpiperidin-3-yl)-4-amino-3-(4-phenoxyphenyl)-1H-imidazo[4,5-c]pyridin-2(3H)-one]","Accidental overdose, patients n (%)",[1],0
same,"Alanine aminotransferase increased, patients n (%)",[1],1 (3%)
same,"Alopecia, patients n (%)",[1],1 (3%)
same,"Back pain, patients n (%)",[1],1 (3%)
same,"Gastroenteritis, patients n (%)",[1],1 (3%)
same,"Headache, patients n (%)",[1],1 (3%)
same,"Muscle spasticity, patients n (%)",[1],0
same,"Nasopharyngitis, patients n (%)",[1],1 (3%)
same,"Oropharyngeal pain, patients n (%)",[1],1 (3%)
same,"Peripheral edema, patients n (%)",[1],2 (6%)
same,"Respiratory tract infection, patients n (%)",[1],0
same,"Upper respiratory tract infection, patients n (%)",[1],2 (6%)
same,"Participants with any TEAE, %",[2],(50.0) %
same,"Participants with any treatment-related TEAE, %",[2],(18.8) %
same,"Participants with treatment emergent SAE(s), Any class, n(%)",[2],0
same,"Participants with treatment emergent SAE(s), Multiple sclerosis relapse, n(%)",[2],0
same,"Participants with treatment emergent SAE(s), NERVOUS SYSTEM DISORDERS, n(%)",[2],0
same,"AESI, Alanice aminotransferase increased, n (%)",[3],0
same,"AESI, Investigations, n (%)",[3],0
same,"Any AESI, n (%)",[3],0
same,"AESI, Alanice aminotransferase increased, n (%)","5 mg, Weeks 1 to 4, N = 16",0
same,"AESI, Investigations, n (%)","5 mg, Weeks 1 to 4, N = 16",0
same,"Any AESI, n (%)","5 mg, Weeks 1 to 4, N = 16",0
same,"Participants with any TEAE, %","5 mg, Weeks 1 to 4, N = 32",(25.0) %
same,"Participants with any treatment-related TEAE, %","5 mg, Weeks 1 to 4, N = 32",(12.5) %
same,"Any AE, %","5 mg, Weeks 1 to 4, n = 16",(31.3%)
same,"Any treatment-related AE, %","5 mg, Weeks 1 to 4, n = 16",(12.5%)
same,"Any AE, %","5 mg, Weeks 1 to 12, n = 33",(57.6) %
same,"Any treatment-related AE, %","5 mg, Weeks 1 to 12, n = 33",(15.2) %
same,"Accidental overdose, patients n (%)",[4],0
same,"Alanine aminotransferase increased, patients n (%)",[4],0
same,"Alopecia, patients n (%)",[4],1 (3%)
same,"Back pain, patients n (%)",[4],1 (3%)
same,"Gastroenteritis, patients n (%)",[4],0
same,"Headache, patients n (%)",[4],3 (9%)
same,"Muscle spasticity, patients n (%)",[4],0
same,"Nasopharyngitis, patients n (%)",[4],0
same,"Oropharyngeal pain, patients n (%)",[4],0
same,"Peripheral edema, patients n (%)",[4],0
same,"Respiratory tract infection, patients n (%)",[4],1 (3%)
same,"Upper respiratory tract infection, patients n (%)",[4],2 (6%)
same,"AESI, Alanice aminotransferase increased, n (%)",[5],0
same,"AESI, Investigations, n (%)",[5],0
same,"Any AESI, n (%)",[5],0
same,"Participants with any TEAE, %",[5],(56.3) %
same,"Participants with any treatment-related TEAE, %",[5],(9.4) %
same,"Participants with treatment emergent SAE(s), Any class, n(%)",[5],0
same,"Participants with treatment emergent SAE(s), Multiple sclerosis relapse, n(%)",[5],0
same,"Participants with treatment emergent SAE(s), NERVOUS SYSTEM DISORDERS, n(%)",[5],0
same,"AESI, Alanice aminotransferase increased, n (%)","15 mg, Weeks 1 to 4, N = 16",0
same,"AESI, Investigations, n (%)","15 mg, Weeks 1 to 4, N = 16",0
same,"Any AESI, n (%)","15 mg, Weeks 1 to 4, N = 16",0
same,"Participants with any TEAE, %","15 mg, Weeks 1 to 4, N = 32",(43.8) %
same,"Participants with any treatment-related TEAE, %","15 mg, Weeks 1 to 4, N = 32",(3.1) %
same,"Any AE, %","15 mg, Weeks 1 to 4, n = 16",(18.9%)
same,"Any AE, %","15 mg, Weeks 1 to 12, n = 32",(53.1) %
same,"Any treatment-related AE, %","15 mg, Weeks 1 to 12, n = 32",(3.1) %
same,ALT level of the AESI participant,"30 mg group, Week 8 visit",105 U/L
same,ALT level of the AESI participant,"30 mg group, within 4 days after Week 8 visit",32 U/L
same,AESIs (alanine aminotransferase increased >3×ULN),30 mg treatment period,1
same,"Accidental overdose, patients n (%)",[6],0
same,"Alanine aminotransferase increased, patients n (%)",[6],1 (3%)
same,"Alopecia, patients n (%)",[6],0
same,"Back pain, patients n (%)",[6],2 (6%)
same,"Gastroenteritis, patients n (%)",[6],0
same,"Headache, patients n (%)",[6],1 (3%)
same,"Muscle spasticity, patients n (%)",[6],1 (3%)
same,"Nasopharyngitis, patients n (%)",[6],1 (3%)
same,"Oropharyngeal pain, patients n (%)",[6],1 (3%)
same,"Peripheral edema, patients n (%)",[6],0
same,"Respiratory tract infection, patients n (%)",[6],1 (3%)
same,"Upper respiratory tract infection, patients n (%)",[6],1 (3%)
same,"AESI, Alanice aminotransferase increased, n (%)",[7],1 (3.0)
same,"AESI, Investigations, n (%)",[7],1 (3.0)
same,"Any AESI, n (%)",[7],1 (3.0)
same,"Participants with any TEAE, %",[7],(51.5) %
same,"Participants with any severe TEAE, %",[7],(3.0) %
same,"Participants with any treatment emergent SAE, %",[7],(3.0) %
same,"Participants with any treatment-related TEAE, %",[7],(12.1) %
same,"Participants with treatment emergent SAE(s), Any class, n(%)",[7],1 (3.0)
same,"Participants with treatment emergent SAE(s), Multiple sclerosis relapse, n(%)",[7],1 (3.0)
same,"Participants with treatment emergent SAE(s), NERVOUS SYSTEM DISORDERS, n(%)",[7],1 (3.0)
same,"AESI, Alanice aminotransferase increased, n (%)","30 mg, Weeks 1 to 4, N = 16",0
same,"AESI, Investigations, n (%)","30 mg, Weeks 1 to 4, N = 16",0
same,"Any AESI, n (%)","30 mg, Weeks 1 to 4, N = 16",0
same,"Participants with any TEAE, %","30 mg, Weeks 1 to 4, N = 33",(42.4) %
same,"Participants with any treatment-related TEAE, %","30 mg, Weeks 1 to 4, N = 33",(12.1) %
same,"Any AE, %","30 mg, Weeks 1 to 4, n = 16",(12.5%)
same,"Any AE, %","30 mg, Weeks 1 to 12, n = 33",(54.5) %
same,"Any treatment-related AE, %","30 mg, Weeks 1 to 12, n = 33",(12.1) %
same,ALT level of the AESI participant,"60 mg group, Week 4 visit, ULN 34 U/L",107 U/L
same,ALT level of the AESI participant,"60 mg group, Week 12",28 U/L
same,AESIs (alanine aminotransferase increased >3×ULN),60 mg treatment period,1
same,"Accidental overdose, patients %",[8],(9%)
same,"Accidental overdose, patients n",[8],3
same,"Alanine aminotransferase increased, patients %",[8],(3%)
same,"Alanine aminotransferase increased, patients n",[8],1
same,"Alopecia, patients %",[8],(3%)
same,"Alopecia, patients n",[8],1
same,"Back pain, patients n",[8],0
same,"Gastroenteritis, patients %",[8],(6%)
same,"Gastroenteritis, patients n",[8],2
same,"Headache, patients %",[8],(13%)
same,"Headache, patients n",[8],4
same,"Muscle spasticity, patients %",[8],(6%)
same,"Muscle spasticity, patients n",[8],2
